The supplement of paper PMC8633005

Columns and labels:
Assay in all cases: drug sensitivity score (DSS) (DSS (unitless, 0-50 scale)); higher = more sensitive (stronger viability inhibition); extreme values may be limits of the assay
Details in all cases: 72 h; culture: 2D
[1] = system: FM-MEL-6
How it was run: (§1)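 Viability was measured by CellTiter-Glo luminescence after 72 h at 37 °C in 384-well plates holding a 527-compound oncology library, with patient-derived melanoma cultures (1000–1500 cells per well) and melanoma cell lines grown in 2D. Every compound was tested at five concentrations spanning a 10,000-fold range. The drug sensitivity score, a modified area under the curve, came from dose-response curves fitted with in-house Breeze software.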

[2] = system: FM-MEL-2
How it was run: as §1

[3] = system: WM165
How it was run: as §1

[4] = system: FM-MEL-3
How it was run: as §1

[5] = system: WM852
How it was run: as §1

[6] = system: SK-MEL-28
How it was run: as §1

[7] = system: SK-MEL-2
How it was run: as §1

[8] = system: Bowes
How it was run: as §1

| Compound | drug sensitivity score [1] | drug sensitivity score [2] | drug sensitivity score [3] | drug sensitivity score [4] | drug sensitivity score [5] | drug sensitivity score [6] | drug sensitivity score [7] | drug sensitivity score [8] |
| --- | --- | --- | --- | --- | --- | --- | --- | --- |
| CN(C)C(=O)c1ccc(S(=O)(=O)c2ccc(NC(=O)[C@@](C)(O)C(F)(F)F)c(Cl)c2)cc1 [AZD7545] | 0 | 0 | 0 | 0 | 1.1 | 0 | 0 | 2.2 |
| CC[C@H](C)C(=O)O[C@H]1C[C@H](O)C=C2C=C[C@H](C)[C@H](CC[C@@H](O)C[C@@H](O)CC(=O)O)[C@H]21 [Pravastatin] | 0 | 0.8 | 0 | 0 | 0 | 0 | 0 | 0 |
| Cc1sc2c(c1C)C(c1ccc(Cl)cc1)=N[C@@H](CC(=O)NCCCCNC(=O)COc1cccc3c1C(=O)N(C1CCC(=O)NC1=O)C3=O)c1nnc(C)n1-2 (some centres undefined) [dBET1] | 4.6 | 3.5 | 10.3 | 7.1 | 0 | 3 | 0 | 9.1 |
| N#Cc1ccc(C(c2ccc(C#N)cc2)n2cncn2)cc1 [Letrozole] | 0 | 0 | 0 | 0 | 0 | 0 | 0 | 0 |
| Nc1nc(OCc2cc(Br)cs2)c2[nH]cnc2n1 [Lomeguatrib] | 0 | 0 | 0 | 0 | 0 | 0 | 0 | 0 |
| CS(=O)(=O)CCNCc1ccc(-c2ccc3ncnc(Nc4ccc(OCc5cccc(F)c5)c(Cl)c4)c3c2)o1 [Lapatinib] | 0.1 | 0.6 | 0 | 0.2 | 0 | 0 | 0 | 1.1 |
| CN1CCc2c(c3ccccc3n2Cc2ccc(C(=O)NO)cc2)C1 [Tubastatin A] | 0 | 0.6 | 2.2 | 0.6 | 0 | 1.3 | 1 | 2 |
| CC(C)(C#N)c1cc(Cn2cncn2)cc(C(C)(C)C#N)c1 [Anastrozole] | 0 | 0 | 0 | 0 | 0 | 0 | 0 | 0 |
| Cn1cc(CNCC2CCN(c3ncc(C(=O)NO)cn3)CC2)c2ccccc21 [Quisinostat] | 10.6 | 13.4 | 16.3 | 11.3 | 5.7 | 10.7 | 13.5 | 9 |
| CC[C@H](CC#N)OC(=O)N[C@@H](C)c1cccc(NC(=O)Nc2ccc(-c3cnco3)c(OC)c2)c1 [AVN944] | 12.8 | 8.1 | 18.9 | 10.5 | 8.4 | 13.3 | 4.8 | 10.4 |
| C[C@@]1(C(=O)Nc2ccc(F)nc2)CCCN1c1nc(Nc2cc(C3CC3)n[nH]2)c2cccn2n1 | 6.1 | 5 | 13.4 | 17.9 | 6.9 | 2 | 2.9 | 11.7 |
| C/C=C1\NC(=O)[C@H]2CSSCC/C=C/[C@H](CC(=O)N[C@H](C(C)C)C(=O)N2)OC(=O)[C@H](C(C)C)NC1=O [Romidepsin] | 26.5 | 28.1 | 30 | 29.7 | 17.9 | 29 | 30.4 | 18.6 |
| CCNC(=O)c1noc(-c2cc(C(C)C)c(O)cc2O)c1-c1ccc(CN2CCOCC2)cc1 [Luminespib] | 8.1 | 10.7 | 20.3 | 21.4 | 9.7 | 9.2 | 9.3 | 15.2 |
| CCn1c(C(=O)N(C2CC2)C2CC2)cc2c3c(ncn3C)c(Nc3cc(C)n(C)n3)nc21 | 0.8 | 2.3 | 0 | 0 | 0 | 0.4 | 0 | 0 |
| C[C@H]1Oc2cc(cnc2N)-c2c(nn(C)c2C#N)CN(C)C(=O)c2ccc(F)cc21 | 0.6 | 0.9 | 0.2 | 2.4 | 0 | 0 | 0 | 0.1 |
| CC/C(=C(\c1ccccc1)c1ccc(OCCN(C)C)cc1)c1ccccc1 [Tamoxifen] | 4.4 | 3.7 | 3.8 | 5.6 | 2.3 | 2.4 | 0 | 0 |
| NC(=S)N/N=C/c1ncccc1N [Triapine] | 3.2 | 0.4 | 5.3 | 0.6 | 0 | 2.5 | 0 | 1.9 |
| CC1(C)CNc2cc(NC(=O)c3cccnc3NCc3ccncc3)ccc21 [Motesanib] | 0 | 0 | 0 | 0 | 0 | 0 | 0 | 0 |
| CN1CCN(c2nc(C3=C(c4c[nH]c5ccccc45)C(=O)NC3=O)c3ccccc3n2)CC1 [Sotrastaurin] | 3.7 | 3.2 | 0 | 0.3 | 0 | 0 | 0 | 0 |
| CCCCOc1nc(N)c2c(n1)N(Cc1cccc(CN3CCCC3)c1)CC(=O)N2 [Vesatolimod] | 0.8 | 0 | 0 | 0 | 0 | 0 | 0 | 0 |
| Cc1cc(C(C)Nc2ccccc2)c2nc(N3CCOCC3)cc(=O)n2c1 (centres undefined) [TGX-221] | 0.9 | 2.2 | 0.1 | 1.1 | 1.2 | 3.3 | 0 | 0.6 |
| CN1CC[C@@H](NC(=O)Nc2ccc(C#N)cc2)C[C@@H]1c1nc2ccccc2[nH]1 [Glasdegib] | 0 | 0 | 0 | 0 | 0 | 0 | 0 | 0 |

| Compound | drug sensitivity score [1] | drug sensitivity score [2] | drug sensitivity score [3] | drug sensitivity score [4] | drug sensitivity score [5] | drug sensitivity score [6] | drug sensitivity score [7] | drug sensitivity score [8] |
| --- | --- | --- | --- | --- | --- | --- | --- | --- |
| CC#CC(=O)N1CCC[C@H]1c1nc(-c2ccc(C(=O)Nc3ccccn3)cc2)c2c(N)nccn12 [Acalabrutinib] | 3.4 | 1 | 0 | 2.2 | 0 | 0 | 0 | 0 |
| Nc1ccccc1NC(=O)c1ccc(CNc2nccc(-c3cccnc3)n2)cc1 [Mocetinostat] | 11.4 | 6.7 | 11.9 | 8.4 | 1.7 | 9.9 | 9.4 | 6.4 |
| O=c1ncn2nc(Sc3ccc(F)cc3F)ccc2c1-c1c(Cl)cccc1Cl [Neflamapimod] | 0.2 | 0.1 | 0.1 | 0.8 | 0.1 | 0.1 | 0 | 1.6 |
| COc1cccc2c1c(O)c(C(=O)N(C)c1ccc(C(F)(F)F)cc1)c(=O)n2C [Tasquinimod] | 0.4 | 0.9 | 0 | 0.2 | 0 | 0 | 0 | 0 |
| CC(=O)O[C@]1(C(C)=O)CC[C@H]2[C@@H]3C=C(C)C4=CC(=O)CC[C@]4(C)[C@H]3CC[C@@]21C [Megestrol acetate] | 0 | 0 | 0 | 1 | 0 | 0 | 0 | 0 |
| Cc1ccc(-c2cc(C(F)(F)F)nn2-c2ccc(S(N)(=O)=O)cc2)cc1 [Celecoxib] | 0 | 0 | 0 | 0 | 0 | 0 | 0 | 0 |
| CCS(=O)(=O)N1CC(CC#N)(n2cc(-c3ncnc4[nH]ccc34)cn2)C1 [Baricitinib] | 0 | 0 | 0 | 0 | 0 | 0 | 0 | 0 |
| Cc1nc(Nc2ncc(C(=O)Nc3c(C)cccc3Cl)s2)cc(N2CCN(CCO)CC2)n1 [Dasatinib] | 0 | 0 | 5.3 | 0 | 0.1 | 3.4 | 0 | 1.9 |
| CC(=O)N(O)CCCCCNC(=O)CCC(=O)N(O)CCCCCNC(=O)CCC(=O)N(O)CCCCCN [Deferoxamine] | 1.8 | 0.6 | 3.8 | 0 | 4.9 | 0.9 | 0 | 2.9 |
| C[C@@H]1CN(CC(=O)Nc2ccc3c(c2)Cc2cccc(-c4cc(=O)cc(N5CCOCC5)o4)c2S3)C[C@H](C)O1 | 1 | 1.5 | 1.1 | 1.2 | 2.6 | 3.4 | 0 | 2.5 |
| O=C1NC(=O)[C@@H](c2cn3c4c(cccc24)CCC3)[C@@H]1c1c[nH]c2ccccc12 [Tivantinib] | 3.2 | 1.9 | 3.1 | 2.3 | 3.1 | 2.1 | 3.8 | 3.6 |
| CC[C@@H]1CN(C(=O)NCC(F)(F)F)C[C@@H]1c1cnc2cnc3[nH]ccc3n12 [Upadacitinib] | 3.6 | 3.6 | 0 | 3.1 | 2.1 | 0.3 | 0 | 0 |
| C[C@H]1C[C@@H]2[C@H]([C@@H](O)C[C@@]3(C)[C@H]2CC[C@]3(O)C(=O)CO)[C@@]2(C)C=CC(=O)C=C12 [Methylprednisolone] | 0 | 0 | 0 | 1.2 | 0 | 0.4 | 0 | 1 |
| O=C(c1cccc(Cl)c1F)N1CCN(Cc2cccc(Nc3nccs3)n2)CC1 [MK-8745] | 0 | 0 | 5.7 | 0.1 | 7.5 | 0.4 | 0 | 5.7 |
| CCS(=O)(=O)c1cccc(-c2cc(C(=O)NC3CCN(C)CC3)c(C)c3[nH]c4ncc(C)cc4c23)c1 [TAK-901] | 1.9 | 0.9 | 9.4 | 1.9 | 4 | 4.1 | 2.4 | 7.3 |
| O=C(Nc1cccc(NC(=O)c2cccc(O)c2O)c1)c1cccc(O)c1O [MST-312] | 4 | 6.1 | 16 | 10.3 | 6.8 | 8.4 | 6.7 | 11.4 |
| Cc1ccc(-n2nc(C(C)(C)C)cc2NC(=O)Nc2ccc(OCCN3CCOCC3)c3ccccc23)cc1 [Doramapimod] | 0.8 | 1.4 | 3.4 | 1.7 | 0 | 0 | 0 | 0 |
| COc1cc(Nc2ncc(F)c(Nc3ccc4c(n3)N(COP(=O)(O)O)C(=O)C(C)(C)O4)n2)cc(OC)c1OC [Fostamatinib] | 1.9 | 4.6 | 3.5 | 2.1 | 0.5 | 2 | 0 | 2 |
| CCc1c2c(nc3ccc(O)cc13)-c1cc3c(c(=O)n1C2)COC(=O)[C@]3(O)CC [SN-38] | 19.7 | 11.8 | 42.7 | 24.6 | 8 | 17 | 17.3 | 19.7 |
| CN1CCN(c2ccc3nc(-c4c(N)c5c(F)cccc5[nH]c4=O)[nH]c3c2)CC1 [Dovitinib] | 0 | 0 | 0.3 | 0 | 0 | 0 | 0 | 0.5 |
| COc1cc(N2CCC(N3CCN(C)CC3)CC2)ccc1Nc1ncc(Cl)c(Nc2ccccc2P(C)(C)=O)n1 [Brigatinib] | 1.6 | 0.9 | 1.5 | 3.3 | 3.1 | 0.5 | 0.2 | 1.1 |
